Laboratory results taken from patent US20050020582A1 (priority 2001, published 2005).
Where two headings read alike, the source gives them in different places.

Assays:
[1] = tested on: neuroblastoma cells (ScN2a); details: mouse
[2] = human, in vivo, cited from earlier work

With `CN(C)CCCN1c2ccccc2Sc2ccc(Cl)cc21` [chlorpromazine] the “decrease in cell population (cytotoxic effects)” value [1] was 50%.

For `CCN(CC)CCCC(C)Nc1c2ccc(Cl)cc2nc2ccc(OC)cc12` (stereo not shown) [quinacrine], the “concentrations without cytotoxic effects on neuroblastoma cells” value [1] was under 5 µM.

For `CSc1ccc2c(c1)N(CCC1CCCCN1C)c1ccccc1S2` (stereo not shown) [thioridazine], the brain concentration ([2]; po) is listed as “more than 80 μM” and the brain concentration [2] is listed as 20 µM.
